Reference: ChEMBL document CHEMBL1201862, “PubChem BioAssay data set” (2004)
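Cultured in 96-well plates, cells were exposed to test compound for 48 hours across five concentrations. Abbreviation: GI50, concentration required for 50% inhibition of growth.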 Calls of active or inactive are those of the source. Cut-off read from the data, not from the text of the source: active = GI50 up to about 1.1 µM and inactive = higher.

Legend:
Assay in all cases: NCI tumour cell line growth inhibition, 48 h
MCF7 = tested on: MCF7
SR = tested on: SR
NCI/ADR-RES = tested on: NCI/ADR-RES
SK-MEL-2 = tested on: SK-MEL-2
U-251 = tested on: U-251
DU-145 = tested on: DU-145
SNB-75 = tested on: SNB-75
OVCAR-3 = tested on: OVCAR-3
SW-620 = tested on: SW-620
OVCAR-8 = tested on: OVCAR-8
TK-10 = tested on: TK-10
MOLT-4 = tested on: MOLT-4
CAKI-1 = tested on: CAKI-1
MDA-MB-435 = tested on: MDA-MB-435
SF-539 = tested on: SF-539
HL-60 = tested on: HL-60
EKVX = tested on: EKVX
SN12C = tested on: SN12C
MDA-N = tested on: MDA-N
HCC 2998 = tested on: HCC 2998
Malme-3M = tested on: Malme-3M
SK-MEL-28 = tested on: SK-MEL-28
NCI-H460 = tested on: NCI-H460
A549 = tested on: A549
M14 = tested on: M14
HCT-116 = tested on: HCT-116
RXF 393 = tested on: RXF 393
UACC-62 = tested on: UACC-62
COLO 205 = tested on: COLO 205
SNB-19 = tested on: SNB-19
CCRF-CEM = tested on: CCRF-CEM
HOP-62 = tested on: HOP-62
PC-3 = tested on: PC-3
MDA-MB-231 = tested on: MDA-MB-231
K562 = tested on: K562
KM12 = tested on: KM12
HOP-92 = tested on: HOP-92
SF-295 = tested on: SF-295
OVCAR-4 = tested on: OVCAR-4
HCT-15 = tested on: HCT-15
RPMI-8226 = tested on: RPMI-8226
786-0 = tested on: 786-0
ACHN = tested on: ACHN
SK-OV-3 = tested on: SK-OV-3
IGROV-1 = tested on: IGROV-1
SF-268 = tested on: SF-268
UACC-257 = tested on: UACC-257
Hs-578T = tested on: Hs-578T
NCI-H23 = tested on: NCI-H23
UO-31 = tested on: UO-31
OVCAR-5 = tested on: OVCAR-5
NCI-H226 = tested on: NCI-H226
SK-MEL-5 = tested on: SK-MEL-5
HT-29 = tested on: HT-29
LOX IMVI = tested on: LOX IMVI
T47D = tested on: T47D

`Nc1ncnc2c1ncn2C1C=CC(COS(N)(=O)=O)C1` (stereo unspecified) was tested, and the GI50 (MCF7) was 6.43 µM (inactive), the GI50 (SR) was 8.55 µM (inactive) and the GI50 (NCI/ADR-RES) was 66.2 µM (inactive). For the same molecule, the GI50 (SK-MEL-2) was 39.3 µM (inactive), the GI50 (U-251) was 5.26 µM (inactive) and the GI50 (DU-145) was 66.8 µM (inactive). For the same molecule, the GI50 (SNB-75) was 21.9 µM (inactive), the GI50 (OVCAR-3) was 31 µM (inactive) and the GI50 (SW-620) was 12.9 µM (inactive). The GI50 (OVCAR-8) was 13.1 µM (inactive), the GI50 (TK-10) was > 100 µM (inactive) and the GI50 (MOLT-4) was 7.85 µM (inactive). For the same molecule, the GI50 (CAKI-1) was 3.28 µM (inactive), the GI50 (MDA-MB-435) was 35.2 µM (inactive) and the GI50 (SF-539) was 0.676 µM (active). The GI50 (HL-60) was 4.19 µM (inactive), the GI50 (EKVX) was > 100 µM (inactive) and the GI50 (SN12C) was 8.2 µM (inactive). For the same molecule, the GI50 (MDA-N) was 22.5 µM (inactive), the GI50 (HCC 2998) was 35.7 µM (inactive) and the GI50 (Malme-3M) was > 100 µM (inactive). The GI50 (SK-MEL-28) was 20.5 µM (inactive), the GI50 (NCI-H460) was 12.2 µM (inactive) and the GI50 (A549) was 36.2 µM (inactive). The GI50 (M14) was 22.2 µM (inactive), the GI50 (HCT-116) was 9.38 µM (inactive) and the GI50 (RXF 393) was 12.4 µM (inactive). For the same molecule, the GI50 (UACC-62) was 20.6 µM (inactive), the GI50 (COLO 205) was 16.9 µM (inactive) and the GI50 (SNB-19) was 9.23 µM (inactive). The GI50 (CCRF-CEM) was 18.4 µM (inactive), the GI50 (HOP-62) was 16.8 µM (inactive) and the GI50 (PC-3) was 12 µM (inactive). The GI50 (MDA-MB-231) was 20.2 µM (inactive), the GI50 (K562) was 16.2 µM (inactive) and the GI50 (KM12) was 19.2 µM (inactive). For the same molecule, the GI50 (HOP-92) was 15.7 µM (inactive), the GI50 (SF-295) was 40.9 µM (inactive) and the GI50 (OVCAR-4) was 34.3 µM (inactive). The GI50 (HCT-15) was 9.27 µM, the GI50 (RPMI-8226) was 2.93 µM (inactive) and the GI50 (786-0) was 18.5 µM (inactive). The GI50 (ACHN) was 23.9 µM (inactive), the GI50 (SK-OV-3) was 52.7 µM (inactive) and the GI50 (IGROV-1) was 34.2 µM (inactive). For the same molecule, the GI50 (SF-268) was 33.7 µM (inactive), the GI50 (UACC-257) was 63.5 µM (inactive) and the GI50 (Hs-578T) was 15.6 µM (inactive). For the same molecule, the GI50 (NCI-H23) was 9.77 µM (inactive), the GI50 (UO-31) was 79.1 µM (inactive) and the GI50 (OVCAR-5) was 64.1 µM (inactive). For the same molecule, the GI50 (NCI-H226) was 55.1 µM (inactive), the GI50 (SK-MEL-5) was 30.4 µM (inactive) and the GI50 (HT-29) was 14.9 µM (inactive). For the same molecule, the GI50 (LOX IMVI) was 5.53 µM (inactive) and the GI50 (T47D) was 8.81 µM (inactive).
